Experiments:
[1] = Aqueous stability of roxithromycin (% Purity by HPLC); type: physicochemical; conditions: 2 mg/mL, 40° C.
Experimental: Roxithromycin stability was determined for 2 mg/mL [roxithromycin] at 5, 25, and 40° C. as a function of pH and buffer (citrate) concentration. Roxithromycin %Purity was determined by area normalization using a reverse-phase HPLC method that meets the requirements of the EP Monograph. Solution pH values were determined per USP <791>.

[2] = Solution osmolality of roxithromycin citrate solutions; type: physicochemical; conditions: 25° C.
Experimental: The solutions were syringe-filtered and analyzed by HPLC for [roxithromycin]. Roxithromycin Potency was assayed by a reverse-phase HPLC method that meets the requirements of the European Pharmacopeia (EP) Monograph for roxithromycin. Solution pH values were determined per USP <791> and solution osmolality values were determined per USP <785>. Aqueous solubility limits were determined for roxithromycin as a function of buffer type (phosphate versus citrate), buffer concentration, pH, and added co-solvent (ethanol).

Roxithromycin % Purity By Area Normalization ([1]; citrate pH 4, 20 mM, 0 mo): 81%
Roxithromycin % Purity By Area Normalization ([1]; citrate pH 4, 20 mM, 0.3 mo): 27%
Roxithromycin % Purity By Area Normalization ([1]; citrate pH 4, 20 mM, 0.5 mo): 10%
Roxithromycin % Purity By Area Normalization ([1]; citrate pH 4, 20 mM, 0.9 mo): 2%
Roxithromycin % Purity By Area Normalization ([1]; citrate pH 4, 50 mM, 0 mo): 78%
Roxithromycin % Purity By Area Normalization ([1]; citrate pH 4, 50 mM, 0.3 mo): 15%
Roxithromycin % Purity By Area Normalization ([1]; citrate pH 4, 50 mM, 0.5 mo): 3%
Roxithromycin % Purity By Area Normalization ([1]; citrate pH 4, 50 mM, 0.9 mo): 1%
Roxithromycin % Purity By Area Normalization ([1]; citrate pH 5, 20 mM, 0 mo): 96%
Roxithromycin % Purity By Area Normalization ([1]; citrate pH 5, 20 mM, 0.3 mo): 74%
Roxithromycin % Purity By Area Normalization ([1]; citrate pH 5, 20 mM, 0.5 mo): 66%
Roxithromycin % Purity By Area Normalization ([1]; citrate pH 5, 20 mM, 0.9 mo): 60%
Roxithromycin % Purity By Area Normalization ([1]; citrate pH 5, 20 mM, 1.5 mo): 50%
Roxithromycin % Purity By Area Normalization ([1]; citrate pH 5, 20 mM, 2.6 mo): 36%
Roxithromycin % Purity By Area Normalization ([1]; citrate pH 5, 20 mM, 5.3 mo): 21%
Roxithromycin % Purity By Area Normalization ([1]; citrate pH 5, 50 mM, 0 mo): 92%
Roxithromycin % Purity By Area Normalization ([1]; citrate pH 5, 50 mM, 0.3 mo): 66%
Roxithromycin % Purity By Area Normalization ([1]; citrate pH 5, 50 mM, 0.5 mo): 55%
Roxithromycin % Purity By Area Normalization ([1]; citrate pH 5, 50 mM, 0.9 mo): 44%
Roxithromycin % Purity By Area Normalization ([1]; citrate pH 5, 50 mM, 1.5 mo): 28%
Roxithromycin % Purity By Area Normalization ([1]; citrate pH 5, 50 mM, 2.6 mo): 13%
Roxithromycin % Purity By Area Normalization ([1]; citrate pH 5, 50 mM, 5.3 mo): 3%
Roxithromycin % Purity By Area Normalization ([1]; citrate pH 5, 100 mM, 0 mo): 90%
Roxithromycin % Purity By Area Normalization ([1]; citrate pH 5, 100 mM, 0.3 mo): 60%
Roxithromycin % Purity By Area Normalization ([1]; citrate pH 5, 100 mM, 0.5 mo): 46%
Roxithromycin % Purity By Area Normalization ([1]; citrate pH 5, 100 mM, 0.9 mo): 31%
Roxithromycin % Purity By Area Normalization ([1]; citrate pH 5, 100 mM, 1.5 mo): 14%
Roxithromycin % Purity By Area Normalization ([1]; citrate pH 5, 100 mM, 2.6 mo): 4%
Roxithromycin % Purity By Area Normalization ([1]; citrate pH 6, 20 mM, 0 mo): 98%
Roxithromycin % Purity By Area Normalization ([1]; citrate pH 6, 20 mM, 0.3 mo): 95%
Roxithromycin % Purity By Area Normalization ([1]; citrate pH 6, 20 mM, 0.5 mo): 92%
Roxithromycin % Purity By Area Normalization ([1]; citrate pH 6, 20 mM, 0.9 mo): 89%
Roxithromycin % Purity By Area Normalization ([1]; citrate pH 6, 20 mM, 1.5 mo): 84%
Roxithromycin % Purity By Area Normalization ([1]; citrate pH 6, 20 mM, 2.6 mo): 79%
Roxithromycin % Purity By Area Normalization ([1]; citrate pH 6, 20 mM, 5.3 mo): 76%
Roxithromycin % Purity By Area Normalization ([1]; citrate pH 6, 50 mM, 0 mo): 98%
Roxithromycin % Purity By Area Normalization ([1]; citrate pH 6, 50 mM, 0.3 mo): 89%
Roxithromycin % Purity By Area Normalization ([1]; citrate pH 6, 50 mM, 0.5 mo): 82%
Roxithromycin % Purity By Area Normalization ([1]; citrate pH 6, 50 mM, 0.9 mo): 77%
Roxithromycin % Purity By Area Normalization ([1]; citrate pH 6, 50 mM, 1.5 mo): 71%
Roxithromycin % Purity By Area Normalization ([1]; citrate pH 6, 50 mM, 2.6 mo): 65%
Roxithromycin % Purity By Area Normalization ([1]; citrate pH 6, 50 mM, 5.3 mo): 61%
Roxithromycin % Purity By Area Normalization ([1]; citrate pH 6, 100 mM, 0 mo): 98%
Roxithromycin % Purity By Area Normalization ([1]; citrate pH 6, 100 mM, 0.3 mo): 85%
Roxithromycin % Purity By Area Normalization ([1]; citrate pH 6, 100 mM, 0.5 mo): 77%
Roxithromycin % Purity By Area Normalization ([1]; citrate pH 6, 100 mM, 0.9 mo): 72%
Roxithromycin % Purity By Area Normalization ([1]; citrate pH 6, 100 mM, 1.5 mo): 66%
Roxithromycin % Purity By Area Normalization ([1]; citrate pH 6, 100 mM, 2.6 mo): 58%
Roxithromycin % Purity By Area Normalization ([1]; citrate pH 6, 100 mM, 5.3 mo): 48%
Solution Osmolaltiy ([2]; 20 mM citrate, pH 4): 43 mOsm/kG
Solution Osmolaltiy ([2]; 20 mM citrate, pH 5): 47 mOsm/kG
Solution Osmolaltiy ([2]; 20 mM citrate, pH 6): 57 mOsm/kG
Solution Osmolaltiy ([2]; 20 mM citrate, pH 7): 60 mOsm/kG
Solution Osmolaltiy ([2]; 50 mM citrate, pH 4): 110 mOsm/kG
Solution Osmolaltiy ([2]; 50 mM citrate, pH 5): 124 mOsm/kG
Solution Osmolaltiy ([2]; 50 mM citrate, pH 6): 139 mOsm/kG
Solution Osmolaltiy ([2]; 50 mM citrate, pH 7): 138 mOsm/kG
Solution Osmolaltiy ([2]; 100 mM citrate, pH 4): 203 mOsm/kG
Solution Osmolaltiy ([2]; 100 mM citrate, pH 5): 243 mOsm/kG
Solution Osmolaltiy ([2]; 100 mM citrate, pH 6): 260 mOsm/kG
Solution Osmolaltiy ([2]; 100 mM citrate, pH 7): 271 mOsm/kG
Solution Osmolaltiy ([2]; 200 mM citrate, pH 4): 366 mOsm/kG
Solution Osmolaltiy ([2]; 200 mM citrate, pH 5): 462 mOsm/kG
Solution Osmolaltiy ([2]; 200 mM citrate, pH 6): 521 mOsm/kG
Solution Osmolaltiy ([2]; 200 mM citrate, pH 7): 532 mOsm/kG
Structure (SMILES): CC[C@H]1OC(=O)[C@H](C)[C@@H](O[C@H]2C[C@@](C)(OC)[C@@H](O)[C@H](C)O2)[C@H](C)[C@@H](O[C@@H]2O[C@H](C)C[C@H](N(C)C)[C@H]2O)[C@](C)(O)C[C@@H](C)/C(=N\OCOCCOC)[C@H](C)[C@@H](O)[C@]1(C)O [roxithromycin]

Source: patent US20070149465A1, “COMPOSITIONS AND METHODS FOR PREVENTION AND TREATMENT OF CACHEXIA” (priority 2005, published 2007)
